Experimental data reported in patent US20240245653A1, “PHARMACEUTICAL FORMULATIONS” (SPEPHARM AG, priority 2021, published 2024).
Read-outs that look alike come from different tables or passages of the source.

Key:
[1] = Dantrolene sodium solubility with HPBCD and parenteral-compatible co-solvent addition (visual inspection); assay type: physicochemical; conditions: for Result (assessed by visual inspection): 7 Mol equivalent HP5 HPBCD solution
Method: This experiment was performed to determine the effects of different parenteral-compatible alcohol- and ketone-based co-solvents on dantrolene sodium solubility, in a 7 Mol equivalent HP5 substituted HPBCD solution. The results are shown in Table 2 below; DNa denotes dantrolene sodium.

[2] = Dantrolene sodium solubility in water only solutions of HPBCD (visual inspection); assay type: physicochemical; conditions: for solubility: aqueous with cosolvent or surfactant or cyclodextrin; for Maximum concentration of dantrolene sodium that could be dissolved: <2 μm particle size
Method: This study was performed to determine the impact of HPBCD on the solubility of dantrolene Sodium. An initial comparison of different HPBCDs was carried out using HP5 and HP7 substituted variants (Cavitron™ W7, Ashland, Inc.), which have a typical degree of substitution (average number of hydroxypropyl groups per cyclodextrin molecule) of 4.1-5.1 and 6.0-8.0 respectively. (Equivalent products, such as Kleptose® HPB (Roquette), which is a low endotoxin burden (<10 IU/g) HP5 substituted β-cyclodextrin with typical molar substitution (i.e. per anhydro glucose subunit) of 0.65 (range 0.58 to 0.68), are also available for commercial scale manufacturing.)
Due to the larger molecular weight of the HP7 variant, more weight of excipient was required to achieve the same molar equivalent concentration compared with the HP5 variant. Overall, HP5 substituted β-cyclodextrin was preferred and it was therefore used for subsequent test formulations.
Further analysis was performed to determine the maximum possible concentration of dantrolene sodium, at different particle sizes, in water only solutions of HP5 substituted β-cyclodextrin. Commercially available samples of dantrolene sodium having particle sizes of <2 μm and <63 μm were tested. […] Results are shown in Table 1 below; DNa denotes dantrolene sodium.

## O=C1CN(/N=C/c2ccc(-c3ccc([N+](=O)[O-])cc3)o2)C([O-])=N1.[Na+] [DNa, dantrolene sodium]
[1]; DNa 4.5 mg/mL anhydrous salt equivalent, Benzyl Alcohol 1%
  Result (assessed by visual inspection): Moderate Excess
[1]; DNa 4.5 mg/mL anhydrous salt equivalent, Ethanol Abs. 1%
  Result (assessed by visual inspection): Hazy - Small Excess
[1]; DNa 4.5 mg/mL anhydrous salt equivalent, Glycerol 5.18%
  Result (assessed by visual inspection): Hazy - Small Excess
[1]; DNa 4.5 mg/mL anhydrous salt equivalent, N,N-Dimethyl-formamide 2%
  Result (assessed by visual inspection): Hazy - Small Excess
[1]; DNa 4.5 mg/mL anhydrous salt equivalent, Polyethylene Glycol 300 (PEG-300) 5%
  Result (assessed by visual inspection): Hazy - Small Excess
[1]; DNa 4.5 mg/mL anhydrous salt equivalent, Polyethylene Glycol 400 (PEG-400) 5%
  Result (assessed by visual inspection): Hazy - Small Excess
[1]; DNa 4.5 mg/mL anhydrous salt equivalent, Propylene Glycol 5%
  Result (assessed by visual inspection): Moderate Excess
[1]; DNa 4.5 mg/mL anhydrous salt equivalent, Tert-Butanol 5%
  Result (assessed by visual inspection): Large Excess
[1]; DNa 4.5 mg/mL anhydrous salt equivalent, Tetrahydrofuran 2%
  Result (assessed by visual inspection): Large Excess
[1]; DNa 4.55 mg/mL anhydrous salt equivalent, N-Methyl-pyrrolidone 2, 4, 6%
  Result (assessed by visual inspection): Hazy - Small Excess
[1]; DNa 4.75 mg/mL anhydrous salt equivalent, Tert-Butanol 5%
  Result (assessed by visual inspection): Large Excess
[1]; DNa 5.0 mg/mL anhydrous salt equivalent, Benzyl Alcohol 2%
  Result (assessed by visual inspection): Large Excess
[1]; DNa 5.0 mg/mL anhydrous salt equivalent, Ethanol Abs. 20%
  Result (assessed by visual inspection): Large Excess
[1]; DNa 5.0 mg/mL anhydrous salt equivalent, Tert-Butanol 10%
  Result (assessed by visual inspection): Large Excess
[1]; DNa 5.0 mg/mL anhydrous salt equivalent, Tert-Butanol 20%
  Result (assessed by visual inspection): Large Excess
[1]; all 15 of the solvents tested, including PEG 300 and PEG 400
  Effect of parenteral-compatible alcohol- or ketone-based solvents on dantrolene solubility in the presence of HPBCD: reduced dantrolene solubility
[2]; DNa 4.46 mg/mL anhydrous salt equivalent (5.16 mg/mL hemiheptahydrate equivalent), particle size <2 μm, 7 molar equivalent HP5 HPBCD, water only
  Result (assessed by visual inspection): Complete solution
[2]; DNa 4.5 mg/mL anhydrous salt equivalent (5.33 mg/mL hemiheptahydrate equivalent), particle size <2 μm, 7 molar equivalent HP5 HPBCD, water only
  Result (assessed by visual inspection): Complete solution
[2]; DNa 4.5 mg/mL anhydrous salt equivalent (5.35 mg/mL hemiheptahydrate equivalent), particle size <63 μm, 7 molar equivalent HP5 HPBCD, water only
  Result (assessed by visual inspection): Complete solution
[2]; DNa 4.55 mg/mL anhydrous salt equivalent (5.36 mg/mL hemiheptahydrate equivalent), particle size <2 μm, 7 molar equivalent HP5 HPBCD, water only
  Result (assessed by visual inspection): Complete solution
[2]; DNa 4.6 mg/mL anhydrous salt equivalent (5.40 mg/mL hemiheptahydrate equivalent), particle size <2 μm, 7 molar equivalent HP5 HPBCD, water only
  Result (assessed by visual inspection): Slightly Hazy Solution (Incomplete)
[2]; DNa 4.65 mg/mL anhydrous salt equivalent (5.47 mg/mL hemiheptahydrate equivalent), particle size <2 μm, 7 molar equivalent HP5 HPBCD, water only
  Result (assessed by visual inspection): Hazy Solution (Incomplete)
[2]; DNa 4.75 mg/mL anhydrous salt equivalent (5.58 mg/mL hemiheptahydrate equivalent), particle size <2 μm, 7 molar equivalent HP5 HPBCD, water only
  Result (assessed by visual inspection): Hazy Solution (Incomplete)
[2]; DNa 4.75 mg/mL anhydrous salt equivalent (5.66 mg/mL hemiheptahydrate equivalent), particle size <63 μm, 7 molar equivalent HP5 HPBCD, water only
  Result (assessed by visual inspection): Hazy Solution (Incomplete)
[2]; DNa 5.0 mg/mL anhydrous salt equivalent (5.95 mg/mL hemiheptahydrate equivalent), particle size <2 μm, 7 molar equivalent HP5 HPBCD, water only
  Result (assessed by visual inspection): Hazy Solution (Incomplete)
[2]; hemiheptahydrate equivalent, 9 Mol equivalents of HPBCD, HP5 variant, purified water, read-out: Solubility of dantrolene sodium
  solubility: 8500 µg/mL
[2]; hemiheptahydrate equivalent, 9 Mol equivalents of HPBCD, HP7 variant, purified water, read-out: Solubility of dantrolene sodium
  solubility: 8500 µg/mL
[2]; thermodynamic from solid, as anhydrous salt equivalent, <63 μm particle size, 7 molar equivalent HP5 HPBCD, water only, read-out: Solubility (maximum concentration of dantrolene sodium that could be dissolved)
  solubility: 4500 µg/mL
[2]; as anhydrous salt equivalent, 7 molar equivalent HP5 HPBCD, water only
  Maximum concentration of dantrolene sodium that could be dissolved: 4.55 mg/mL
[2]; as hemiheptahydrate equivalent, 7 molar equivalent HP5 HPBCD, water only
  Maximum concentration of dantrolene sodium that could be dissolved: 5.36 mg/mL
[2]; as hemiheptahydrate equivalent, <63 μm particle size, 7 molar equivalent HP5 HPBCD, water only
  Solubility (maximum concentration of dantrolene sodium that could be dissolved): 5350 µg/mL
